Source: ChEMBL document CHEMBL1146431, “Isolation and structure elucidation of ardisenone: a new, cytotoxic alkenylphenol from Ardisia iwahigensis” (J Nat Prod, 1997)
≈ marks a conversion by molar mass, not a printed value.

Columns and labels:
Format in all cases: functional, cell-based
[1] = Cytotoxicity against human vinblastine-resistant KBV1 cells by SRB assay in presence of vinblastine; details: KB-V1
Col2 = assay: Cytotoxicity against human Col2 cells by SRB assay
LNCaP = assay: Cytotoxicity against human LNCAP cells by SRB assay
Lu1 = assay: Cytotoxicity against human Lu1 cells by SRB assay
KB = assay: Cytotoxicity against human KB cells by SRB assay
[2] = Cytotoxicity against human vinblastine-resistant KBV1 cells by SRB assay in absence of vinblastine; details: KB-V1
[3] = Cytotoxicity against human BC1 cells by SRB assay

## COc1cc(O)cc(CC(=O)CCC/C=C\CCCCCCCCC(=O)c2cc(O)cc(OC)c2)c1 [ARDISENONE]
[1]
  IC50: 8 µg/mL
Col2
  IC50: 15 µg/mL (≈ 30.2 µM)
LNCaP
  IC50: 11 µg/mL (≈ 22.1 µM)
Lu1
  IC50: 4.9 µg/mL (≈ 9.87 µM)
KB
  IC50: 13 µg/mL (≈ 26.2 µM)
[2]
  IC50: 6.9 µg/mL (≈ 13.9 µM)
[3]
  IC50: 8.5 µg/mL (≈ 17.1 µM)
